In paper PMC5361891 (Journal of chemical information and modeling, 2017):

Tests used:
5-HT1AR = details: affinity toward 5-HT1AR; cited from earlier work
human 5-HT6R = human 5-HT6R (Homo sapiens, UniProt P50406); test: Radioligand binding assay, [3H]-LSD displacement; details: read-out: Ki 5-HT6; HEK293 cell membranes, 2 nM [3H]-LSD, 37 °C 1 h
human 5-HT2AR = human 5-HT2AR (Homo sapiens, UniProt P28223); test: Radioligand binding assay, [3H]-Ketanserin displacement; details: read-out: Ki 5-HT2A; HEK293 cell membranes, 1.0 nM [3H]-Ketanserin, 37 °C 1 h
human 5-HT7bR = human 5-HT7bR (Homo sapiens, UniProt P34969); test: Radioligand binding assay, [3H]-5-CT displacement; details: read-out: Ki 5-HT7; HEK293 cell membranes, 0.6 nM [3H]-5-CT, 37 °C 1 h
Chain of human 5-HT7bR (P34969 1-432 limits assumed): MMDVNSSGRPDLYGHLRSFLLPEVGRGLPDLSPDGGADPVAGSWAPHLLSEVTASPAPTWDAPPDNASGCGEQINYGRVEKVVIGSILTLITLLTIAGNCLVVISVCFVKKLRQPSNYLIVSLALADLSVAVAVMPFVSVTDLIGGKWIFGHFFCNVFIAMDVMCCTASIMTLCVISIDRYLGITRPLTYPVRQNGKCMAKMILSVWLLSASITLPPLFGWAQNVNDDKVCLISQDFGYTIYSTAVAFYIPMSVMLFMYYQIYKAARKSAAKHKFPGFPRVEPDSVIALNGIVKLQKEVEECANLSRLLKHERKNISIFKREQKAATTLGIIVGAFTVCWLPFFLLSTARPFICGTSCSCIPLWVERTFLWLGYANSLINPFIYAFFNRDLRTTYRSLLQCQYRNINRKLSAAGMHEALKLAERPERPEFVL

Chain of human 5-HT2AR (P28223 whole entry): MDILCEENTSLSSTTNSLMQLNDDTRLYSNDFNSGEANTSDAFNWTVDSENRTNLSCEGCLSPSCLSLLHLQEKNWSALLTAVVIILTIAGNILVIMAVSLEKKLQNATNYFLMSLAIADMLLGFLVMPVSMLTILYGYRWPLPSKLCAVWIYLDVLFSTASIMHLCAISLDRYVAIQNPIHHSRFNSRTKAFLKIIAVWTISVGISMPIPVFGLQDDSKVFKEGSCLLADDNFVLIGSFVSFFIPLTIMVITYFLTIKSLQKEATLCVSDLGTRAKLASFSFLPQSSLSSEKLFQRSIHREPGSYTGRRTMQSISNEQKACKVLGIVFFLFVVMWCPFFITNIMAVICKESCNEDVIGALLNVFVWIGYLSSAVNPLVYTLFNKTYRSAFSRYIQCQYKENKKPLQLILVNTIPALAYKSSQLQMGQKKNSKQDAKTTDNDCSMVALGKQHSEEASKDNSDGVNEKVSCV
Chain of human 5-HT6R (P50406 whole entry): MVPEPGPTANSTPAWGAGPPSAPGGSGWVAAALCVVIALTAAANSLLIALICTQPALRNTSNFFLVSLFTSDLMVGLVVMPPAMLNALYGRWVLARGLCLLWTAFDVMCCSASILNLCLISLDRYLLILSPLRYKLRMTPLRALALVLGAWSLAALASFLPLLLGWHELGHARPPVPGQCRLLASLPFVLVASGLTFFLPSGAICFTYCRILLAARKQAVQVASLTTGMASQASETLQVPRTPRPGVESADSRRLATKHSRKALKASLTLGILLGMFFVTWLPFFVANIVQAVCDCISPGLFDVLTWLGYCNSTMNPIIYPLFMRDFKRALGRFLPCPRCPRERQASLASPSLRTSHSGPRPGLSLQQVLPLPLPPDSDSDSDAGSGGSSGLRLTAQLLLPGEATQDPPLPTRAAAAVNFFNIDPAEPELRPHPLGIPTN

COc1ccccc1N1CCN(CCCCNC(=O)C23CC4CC(C2)C(C4)C3)CC1 [NBUMP, 4-[4-(1-noradamantanecarboxamido)butyl]-1-(2-methoxyphenyl)piperazine]
Ki (5-HT1AR): 0.0001 µM

COC(=O)c1ccc(C2c3c(-c4ccccc4O)n[nH]c3C(=O)N2Cc2ccncc2)cc1 (stereo not shown) [D174-0581]
Ki (human 5-HT6R): 13.5 µM | Ki (human 5-HT2AR): 3.75 µM | Ki (human 5-HT7bR): 6.48 µM
